This passage reports carcinogen call results from PubChem BioAssay AID1259411 (Chemical Carcinogenesis Research Information System (CCRIS), 2018).

The source made the active and inactive calls. The rule behind the calls is not given here.

This data set deals with rodent carcinogenicity bioassays, tumor incidence. Put plainly: CCRIS carcinogenicity studies. In outline: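 NCI-built, expert-reviewed records of carcinogenicity and related test outcomes (mutagenicity, tumor promotion/inhibition) compiled from published and report sources, historical span 1985-2011, not updated.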

For `CC(=O)OC/N=[N+](/C)[O-]`, the carcinogen call by setting is: (Species: FISH, Strain/Sex: MOSQUITOFISH/MALE, FEMALE, Route: IMMERSION, Dose: 0, 10 MG/L IN WATER FOR 2 HR EXPOSURE (STUDY DURATION: 40 WK), Tumor Site: Type of Lesion: LIVER: TUMOR) “active; positive”; (Species: MONKEY, Strain/Sex: AFRICAN GREEN/MALE,FEMALE, Route: INTRAPERITONEAL, Dose: 1.94-9.66 G TOTAL DOSE, 1/WK FOR UP TO 89 MO, Tumor Site: Type of Lesion: LIVER: HEPATOCELLULAR CARCINOMA, HEMANGIOSARCOMA, KIDNEY: RENAL CELL CARCINOMA, ESOPHAGUS: SQUAMOUS CELL CARCINOMA, CECU, Tumor Site: Type of Lesion: LIVER: HEPATOCELLULAR CARCINOMA, HEMANGIOSARCOMA, KIDNEY: RENAL CELL CARCINOMA, ESOPHAGUS: SQUAMOUS CELL CARCINOMA, CECU) “active; positive”; (Species: MONKEY, Strain/Sex: CYNOMOLGUS/MALE,FEMALE, Route: INTRAPERITONEAL, Dose: 1.94-9.66 G TOTAL DOSE, 1/WK FOR UP TO 89 MO, Tumor Site: Type of Lesion: LIVER: HEPATOCELLULAR CARCINOMA, HEMANGIOSARCOMA, KIDNEY: RENAL CELL CARCINOMA, ESOPHAGUS: SQUAMOUS CELL CARCINOMA, CECU, Tumor Site: Type of Lesion: LIVER: HEPATOCELLULAR CARCINOMA, HEMANGIOSARCOMA, KIDNEY: RENAL CELL CARCINOMA, ESOPHAGUS: SQUAMOUS CELL CARCINOMA, CECU) “active; positive”; (Species: MONKEY, Strain/Sex: RHESUS/MALE,FEMALE, Route: INTRAPERITONEAL, Dose: 1.94-9.66 G TOTAL DOSE, 1/WK FOR UP TO 89 MO, Tumor Site: Type of Lesion: LIVER: HEPATOCELLULAR CARCINOMA, HEMANGIOSARCOMA, KIDNEY: RENAL CELL CARCINOMA, ESOPHAGUS: SQUAMOUS CELL CARCINOMA, CECU, Tumor Site: Type of Lesion: LIVER: HEPATOCELLULAR CARCINOMA, HEMANGIOSARCOMA, KIDNEY: RENAL CELL CARCINOMA, ESOPHAGUS: SQUAMOUS CELL CARCINOMA, CECU) “active; positive”; (Species: MOUSE, Route: SUBCUTANEOUS, Dose: 0.2-0.4 MG, SINGLE DOSE, Tumor Site: Type of Lesion: UNSPECIFIED: TUMOR) “active; positive”; (Species: MOUSE, Strain/Sex: BALB/FEMALE, Route: DERMAL, Dose: 0, 0.5 MG PAINTED ON ANAL REGION 3/WK FOR 24 WK (STUDY DURATION: 24 WK), Tumor Site: Type of Lesion: PERIANAL SEBACEOUS GLAND: SQUAMOUS CELL CARCINOMA, ADENOMA) “active; positive”. Moreover, the carcinogen call (Species: MOUSE, Strain/Sex: BALB/MALE, Route: DERMAL, Dose: 0, 0.5 MG PAINTED ON ANAL REGION 3/WK FOR 24 WK (STUDY DURATION: 30 WK), Tumor Site: Type of Lesion: PERIANAL SEBACEOUS GLAND: SQUAMOUS CELL CARCINOMA, BLOOD VESSELS: HEMANGIOMA OR HEMANGIOENDOTHELIOMA) is “active; positive”; the carcinogen call (Species: RAT, Route: INTRAPERITONEAL, SUBCUTANEOUS, Tumor Site: Type of Lesion: BILE DUCT, INTESTINES, KIDNEY, Tumor Site: Type of Lesion: BILE DUCT, INTESTINES, KIDNEY) is “active; positive”; the carcinogen call (Species: RAT, Route: INTRAVENOUS, ORAL, Tumor Site: Type of Lesion: INTESTINES, KIDNEY, LIVER, Tumor Site: Type of Lesion: INTESTINES, KIDNEY, LIVER) is “active; positive”; the carcinogen call (Species: RAT, Route: RECTAL, Tumor Site: Type of Lesion: INTESTINES, KIDNEY) is “active; positive”; the carcinogen call (Species: RAT, Route: SUBCUTANEOUS, Dose: 12.5 MG TOTAL DOSE, 4 DOSES OVER 3 WK, Tumor Site: Type of Lesion: INTESTINES: NEOPLASMS, BILE DUCT: ADENOMA) is “active; positive”; the carcinogen call (Species: RAT, Strain/Sex: DONRYU/MALE, Route: RECTAL, Dose: 1 MG, 1/D FOR 7-26 D, Tumor Site: Type of Lesion: INTESTINES (LARGE): ADENOCARCINOMA, KIDNEY: NEPHROBLASTOMA) is “active; positive”.

`ClC=C(Cl)Cl`: the carcinogen call (Species: MOUSE, Strain/Sex: B6C3F1/FEMALE, Route: GAVAGE, Dose: 0, 869, 1739 MG/KG/D, TWA, Dose: 0, 869, 1739 MG/KG/D, TWA, Tumor Site: Type of Lesion: LIVER: HEPATOCELLULAR CARCINOMA) is “active; positive”; the carcinogen call (Species: MOUSE, Strain/Sex: B6C3F1/FEMALE, Route: GAVAGE, Dose: 0, 1000 MG/KG IN CORN OIL 5 D/WK FOR 103 WK (STUDY DURATION: 107 WK), Tumor Site: Type of Lesion: LIVER: ADENOMA, CARCINOMA) was “active; positive”; the carcinogen call (Species: MOUSE, Strain/Sex: B6C3F1/FEMALE, Route: INHALATION, Dose: 0, 100, 300, 600 PPM 7 HR/D 5 D/WK FOR 78 WK (STUDY DURATION: LIFETIME), Dose: 0, 100, 300, 600 PPM 7 HR/D 5 D/WK FOR 78 WK (STUDY DURATION: LIFETIME), Tumor Site: Type of Lesion: LUNG: TUMOR) is “active; positive”; the carcinogen call (Species: MOUSE, Strain/Sex: B6C3F1/MALE, Route: GAVAGE, Dose: 0, 1000 MG/KG IN CORN OIL 5 D/WK FOR 103 WK (STUDY DURATION: 107 WK), Tumor Site: Type of Lesion: LIVER: ADENOMA, CARCINOMA) is “active; positive”; the carcinogen call (Species: MOUSE, Strain/Sex: B6C3F1/MALE, Route: GAVAGE, Dose: 0, 1169, 2339 MG/KG/D, TWA, Dose: 0, 1169, 2339 MG/KG/D, TWA, Tumor Site: Type of Lesion: LIVER: HEPATOCELLULAR CARCINOMA) was “active; positive”; the carcinogen call (Species: MOUSE, Strain/Sex: B6C3F1/MALE, Route: INHALATION, Dose: 0, 100, 300, 600 PPM 7 HR/D 5 D/WK FOR 78 WK (STUDY DURATION: LIFETIME), Dose: 0, 100, 300, 600 PPM 7 HR/D 5 D/WK FOR 78 WK (STUDY DURATION: LIFETIME)) is “inactive; negative”. Moreover, the carcinogen call runs as follows: (Species: MOUSE, Strain/Sex: ICR/MALE, FEMALE, Route: GAVAGE, Dose: 0, 10 MG/KG IN CORN OIL 5 D/WK FOR 18 MO (DOSES REDUCED BY FACTOR OF 2 FROM 40TH WEEK)(STUDY DURATION: 24 MO)) “inactive; negative”; (Species: MOUSE, Strain/Sex: SWISS/FEMALE, Route: INHALATION, Dose: 0, 100, 300, 600 PPM 7 HR/D 5 D/WK FOR 78 WK (STUDY DURATION: LIFETIME), Dose: 0, 100, 300, 600 PPM 7 HR/D 5 D/WK FOR 78 WK (STUDY DURATION: LIFETIME)) “inactive; negative”; (Species: MOUSE, Strain/Sex: SWISS/MALE, Route: INHALATION, Dose: 0, 100, 300, 600 PPM 7 HR/D 5 D/WK FOR 78 WK (STUDY DURATION: LIFETIME), Dose: 0, 100, 300, 600 PPM 7 HR/D 5 D/WK FOR 78 WK (STUDY DURATION: LIFETIME), Tumor Site: Type of Lesion: LUNG: TUMOR, LIVER: HEPATOMA) “active; positive”; (Species: RAT, Strain/Sex: F344/FEMALE, Route: GAVAGE, Dose: 0, 500, 1000 MG/KG IN CORN OIL 5 D/WK FOR 103 WK (STUDY DURATION: 107 WK), Dose: 0, 500, 1000 MG/KG IN CORN OIL 5 D/WK FOR 103 WK (STUDY DURATION: 107 WK)) “inactive; negative”; (Species: RAT, Strain/Sex: SPRAGUE-DAWLEY/FEMALE, Route: GAVAGE, Dose: 0, 50, 250 MG/KG BW IN OLIVE OIL 1/D 4-6 D/WK FOR 52 WK (STUDY DURATION: LIFETIME), Dose: 0, 50, 250 MG/KG BW IN OLIVE OIL 1/D 4-6 D/WK FOR 52 WK (STUDY DURATION: LIFETIME), Tumor Site: Type of Lesion: [BRAIN WAS ONLY SITE EVALUATED]) “inactive; negative”; (Species: RAT, Strain/Sex: SPRAGUE-DAWLEY/FEMALE, Route: INHALATION, Dose: 0, 100, 300, 600 PPM 7 HR/D 5 D/WK FOR 104 WK (STUDY DURATION: LIFETIME), Dose: 0, 100, 300, 600 PPM 7 HR/D 5 D/WK FOR 104 WK (STUDY DURATION: LIFETIME)) “inactive; negative”. For the same molecule, the carcinogen call is, setting by setting: (Species: RAT, Strain/Sex: SPRAGUE-DAWLEY/MALE, Route: GAVAGE, Dose: 0, 50, 250 MG/KG BW IN OLIVE OIL 1/D 4-6 D/WK FOR 52 WK (STUDY DURATION: LIFETIME), Dose: 0, 50, 250 MG/KG BW IN OLIVE OIL 1/D 4-6 D/WK FOR 52 WK (STUDY DURATION: LIFETIME), Tumor Site: Type of Lesion: [BRAIN WAS ONLY SITE EVALUATED]) “inactive; negative”; (Species: RAT, Strain/Sex: SPRAGUE-DAWLEY/MALE, Route: INHALATION, Dose: 0, 100, 300, 600 PPM 7 HR/D 5 D/WK FOR 104 WK (STUDY DURATION: LIFETIME), Dose: 0, 100, 300, 600 PPM 7 HR/D 5 D/WK FOR 104 WK (STUDY DURATION: LIFETIME), Tumor Site: Type of Lesion: TESTIS: LEYDIG CELL TUMOR) “active; positive”.

On to `CCCCCCCCCCCCCC(=O)ON(C(C)=O)c1ccc2c(c1)Cc1cc(I)ccc1-2`, for which the carcinogen call (Species: RAT, Strain/Sex: F344/MALE, Route: SUBCUTANEOUS, Dose: 10.6 UMOL IN 0.2 ML DMSO-TRIOCTANOIN 1/WK FOR 6 WK, Tumor Site: Type of Lesion: INJECTION SITE: FIBROSARCOMA OR FIBROMYOSARCOMA OR FIBROLIPOSARCOMA) is “active; positive”.

Regarding `CCCCCCCCCCCCCCN(C)N=O`, the carcinogen call (Species: RAT, Strain/Sex: F344/MALE, Route: GAVAGE, Dose: 0, 140 MG/ML IN CORN OIL 2/WK FOR 30 WK, STUDY DURATION: 110 WK, Dose: 0, 140 MG/ML IN CORN OIL 2/WK FOR 30 WK, STUDY DURATION: 110 WK, Tumor Site: Type of Lesion: BLADDER) is “active; positive”.
